The source of these data is patent publication US20230052424A1, “Peramivir Dry Powder Inhaler and Method of Preparing the Same” (GUANGZHOU NUCIEN PHARMACEUTICAL CO., LTD, priority 2020, published 2023).

SMILES strings stand for the structures. Marks after values point to notes of the source that are not given here.

Test [1] relates to Influenza A/PR/8/34 virus. The test can be described thus: In vivo protection of mice infected with influenza virus (mortality, survival time). On the set-up: species or system Balb/c mice. The settings on record: 10 mg/kg intragastric, once per day 5 days from 2 h post-infection, 10 mice, 15 days observed. The method, then:
80 SPF Balb/c mice, half male and half female, weighing 16.9˜22.6 g each, were stochastically divided into 8 groups: a normal control group, a virus model group, an oseltamivir phosphate capsule group (Tamiflu) (10 mg/kg), a peramivir intravenous injection group (10 mg/kg), and peramivir dry powder inhaler (example 3) groups I-IV (0.1, 0.3, 0.9, 2.7 mg/kg), ten mice in each group. […] Prior to daily administration, the peramivir intravenous injection was prepared into a 1.0 mg/mL liquor with 0.9% sodium chloride injection, and the oseltamivir phosphate capsule was prepared into a 0.5 mg/mL liquor with pure water. The mice in each group were all administered at 2 h post-modeling of the intranasal virus infection, wherein the mice in each peramivir dry powder inhaler group were administered with a corresponding dosage of peramivir dry powder inhaler, the mice in the peramivir intravenous injection group were intravenously injected with the peramivir liquid as per a dosage of 10 mL/kg, the oseltamivir phosphate capsule group were intragastrically administered with oseltamivir phosphate liquid as per a dosage of 20 mL/kg, and the normal control group and the model control group were sprayed with air of the same volume via their trachea. The mice were administered once per day, 5 days in succession. The first day (D1) of virus infection was counted from the next day of the intranasal virus inflection modeling.

The test system of test [2] is Influenza A/PR/8/34 virus. The test is described as follows: Viral titer of mouse lung tissue (hemagglutination titer). It counts as in vivo, Balb/c mice. The settings on record: 10 mg/kg intragastric once per day, lung suspension, logarithmic value of maximum dilution factor. On the procedure:
84 SPF Balb/c mice, half male and half female, weighing 21.2˜26.6 g each, were stochastically divided into 7 groups: a normal control group, a virus model group, an oseltamivir phosphate capsule group (Tamiflu) (10 mg/kg), a peramivir I.V. group (10 mg/kg), and peramivir dry powder inhaler (example 3) groups I-III (0.1, 0.3, 0.9 mg/kg), twelve mice in each group (in each group, F04˜F06 and M04˜M06 were subjected to 24 h hemagglutination titer measurement, and F01˜F03 and M1˜M03 were subjected to 48 h hemagglutination titer measurement). […] Prior to daily administration, the peramivir I.V. injection was prepared into a 1.0 mg/mL liquor with 0.9% sodium chloride injection, and the oseltamivir phosphate capsule was prepared into a 0.5 mg/mL liquor with pure water. The mice in each group were all administered at 2 h post-modeling of the intranasal virus infection, wherein the mice in each peramivir DPI group were administered with a corresponding dosage of peramivir dry powder inhaler, the mice in the peramivir intravenous injection group were intravenously injected with the peramivir liquid as per a dosage of 10 mL/kg, the oseltamivir phosphate capsule group were intragastrically administered with oseltamivir phosphate liquid as per a dosage of 20 mL/kg, and the normal control group and the model control group were sprayed with air of the same volume via their trachea. The mice were administered once per day, 2 days in succession.
6 mice, half male and half female, were stochastically selected from each group at 24 h and 48 h post-administration, respectively. The mice were euthanized by cervical dislocation and their lungs were procured through dissection and then put in a homogenizer. 0.9% sodium chloride injection was added according to a ratio of the lung weight (g) to 0.9% sodium chloride injection (mL)=1:9, followed by grinding the homogenates into mouse lung suspensions. The mouse lung suspensions were subjected to centrifugation at 2500 rpm for 20 min under a 4° C. environment, with the supernatant being acquired for future use. Except the first column, 50 μL PBS (Phosphate Buffer Saline) was added into hemagglutination plate wells. 100 μL to-be-tested supernatant was added into each well in the first column, respectively, followed by adding with serial dilution till the wells in the 11th column, and then 50 μL 0.5% chicken erythrocyte was added into each well, respectively, followed by setting for 40 min; the hemagglutination plate was then tilted to observe whether the erythrocyte flew in a teardrop shape. […]

Setting [3] is: listed as oseltamivir phosphate.

In the case of `CCOC(=O)C1=C[C@@H](OC(CC)CC)[C@H](NC(C)=O)[C@@H](N)C1` [Oseltamivir phosphate], the figures for the “Average number of survival days” value in test [1] and in test [1] (setting [3]) were 11.3 ± 4.8 days and “significantly prolonged”, respectively. Besides, the results for the “Mortality rate (%)” value in test [1] and in test [1] (setting [3]) were 40** % and “significantly decreased”, respectively. In addition, the Number of deaths in test [1] came out at 4. The Number of survivals in test [1] came out at 6. For the same compound, the hemagglutination titer is reported as 2.5 ± 0.5 in test [2] (24 h, n = 6); “notably decreased” in test [2] (24 h, n = 6, listed as oseltamivir phosphate); 2.2 ± 0.8 in test [2] (48 h, n = 6); “notably decreased” in test [2] (48 h, n = 6, listed as oseltamivir phosphate).
